Assay results reported in PubChem BioAssay AID1745844 (Carcinogenic Potency Database (CPDB), 2022).
“And” between values parts separate entries of the source, which are not always exact repeats. Equal values may be shown once. The source made the active and inactive calls. How the calls were made is not given here.

Tested on: rodent lifetime carcinogenesis bioassay, tumor incidence TD50
Experiment: carcinogenic potency in animals, long-term in vivo studies, CPDB compilation (AID 1745844)

For Cc1ccccc1N, the TD50 (mouse, strain B6C3F1, females, in feed, site: any site (literature study), lesion: several types, types named in the paper, dosed 102 weeks, study length 102 weeks) was 1350 mg/kg/day, the TD50 (mouse, strain B6C3F1, females, in feed, site: liver, lesion: hepatocellular adenoma + hepatocellular carcinoma + neoplastic nodule, dosed 102 weeks, study length 102 weeks) was 754 mg/kg/day and the TD50 (mouse, strain B6C3F1, females, in feed, site: liver, lesion: hepatocellular adenoma + hepatocellular carcinoma, dosed 102 weeks, study length 102 weeks) was 754 mg/kg/day. It also gave a TD50 (mouse, strain B6C3F1, females, in feed, site: liver, lesion: hepatocellular carcinoma, dosed 102 weeks, study length 102 weeks) of 1520 mg/kg/day, a TD50 (mouse, strain B6C3F1, males, in feed, site: all sites, lesion: hemangioma + hemangiosarcoma, dosed 102 weeks, study length 102 weeks) of 926 mg/kg/day and a TD50 (mouse, strain B6C3F1, males, in feed, site: all sites, lesion: hemangiosarcoma, dosed 102 weeks, study length 102 weeks) of 1220 mg/kg/day. For the same compound, the TD50 (mouse, strain B6C3F1, males, in feed, site: liver, lesion: hepatocellular adenoma + hepatocellular carcinoma + neoplastic nodule, dosed 102 weeks, study length 102 weeks) was 12700 mg/kg/day, the TD50 (mouse, strain CD-1 HaM/ICR, females, in feed, site: all sites, lesion: all vascular tumors, dosed 68 weeks, study length 90 weeks) was 1240 mg/kg/day and the TD50 (mouse, strain CD-1 HaM/ICR, females, in feed, site: any site (literature study), lesion: several types, types named in the paper, dosed 68 weeks, study length 90 weeks) was 699 mg/kg/day. For the same compound, the TD50 (mouse, strain CD-1 HaM/ICR, females, in feed, site: liver, lesion: several types, types named in the paper, dosed 68 weeks, study length 90 weeks) was 1650 mg/kg/day (inactive), the carcinogen call (mouse, strain CD-1 HaM/ICR, females, in feed, site: lung, lesion: several types, types named in the paper, dosed 68 weeks, study length 90 weeks) was “negative (inactive)” and the TD50 (mouse, strain CD-1 HaM/ICR, males, in feed, site: all sites, lesion: all vascular tumors, dosed 68 weeks, study length 90 weeks) was 646 mg/kg/day and 660 mg/kg/day. For the same compound, the TD50 (mouse, strain CD-1 HaM/ICR, males, in feed, site: any site (literature study), lesion: several types, types named in the paper, dosed 68 weeks, study length 90 weeks) was 325 mg/kg/day, the TD50 (mouse, strain CD-1 HaM/ICR, males, in feed, site: liver, lesion: several types, types named in the paper, dosed 68 weeks, study length 90 weeks) was 1400 mg/kg/day (inactive) and the TD50 (mouse, strain CD-1 HaM/ICR, males, in feed, site: lung, lesion: several types, types named in the paper, dosed 68 weeks, study length 90 weeks) was 1160 mg/kg/day (inactive). The TD50 (rat, strain Charles River CD (Sprague-Dawley), males, in feed, site: any site (literature study), lesion: several types, types named in the paper, dosed 64 weeks, study length 68 weeks) was 36.1 mg/kg/day, the TD50 (rat, strain Charles River CD (Sprague-Dawley), males, in feed, site: liver, lesion: several types, types named in the paper, dosed 64 weeks, study length 68 weeks) was 2960 mg/kg/day (inactive) and the TD50 (rat, strain Charles River CD (Sprague-Dawley), males, in feed, site: subcutaneous tissue, lesion: several types, types named in the paper, dosed 64 weeks, study length 68 weeks) was 36.7 mg/kg/day and 38.8 mg/kg/day. The TD50 (rat, strain Charles River CD (Sprague-Dawley), males, in feed, site: urinary bladder, lesion: several types, types named in the paper, dosed 64 weeks, study length 68 weeks) was 131 mg/kg/day, the TD50 (rat, strain Fischer 344, females, in feed, site: any site (literature study), lesion: several types, types named in the paper, dosed 104 weeks, study length 104 weeks) was 75.8 mg/kg/day and the TD50 (rat, strain Fischer 344, females, in feed, site: mammary gland + multiple organs + spleen + urinary bladder, lesion: adenoma, NOS + fibroadenoma + angiosarcoma + fibrosarcoma + osteosarcoma + sarcoma, NOS + transitional-cell carcinoma + transitional-c, dosed 104 weeks, study length 104 weeks) was 77.9 mg/kg/day. It also gave a TD50 (rat, strain Fischer 344, females, in feed, site: mammary gland, lesion: adenoma, NOS + fibroadenoma, dosed 104 weeks, study length 104 weeks) of 119 mg/kg/day, a TD50 (rat, strain Fischer 344, females, in feed, site: mammary gland, lesion: fibroadenoma, dosed 104 weeks, study length 104 weeks) of 115 mg/kg/day and a TD50 (rat, strain Fischer 344, females, in feed, site: multiple organs, lesion: angiosarcoma + fibrosarcoma + osteosarcoma + sarcoma, NOS, dosed 104 weeks, study length 104 weeks) of 332 mg/kg/day. It also gave a TD50 (rat, strain Fischer 344, females, in feed, site: multiple organs, lesion: osteosarcoma, dosed 104 weeks, study length 104 weeks) of 423 mg/kg/day, a TD50 (rat, strain Fischer 344, females, in feed, site: spleen, lesion: angiosarcoma + osteosarcoma + sarcoma, NOS, dosed 104 weeks, study length 104 weeks) of 337 mg/kg/day and a TD50 (rat, strain Fischer 344, females, in feed, site: spleen, lesion: angiosarcoma, dosed 104 weeks, study length 104 weeks) of 450 mg/kg/day. For the same compound, the TD50 (rat, strain Fischer 344, females, in feed, site: urinary bladder, lesion: transitional-cell carcinoma + transitional-cell papilloma, dosed 104 weeks, study length 104 weeks) was 175 mg/kg/day, the TD50 (rat, strain Fischer 344, females, in feed, site: urinary bladder, lesion: transitional-cell carcinoma, dosed 104 weeks, study length 104 weeks) was 185 mg/kg/day and the TD50 (rat, strain Fischer 344, males, in feed, site: any site (literature study), lesion: several types, types named in the paper, dosed 102 weeks, study length 104 weeks) was 24.4 mg/kg/day. For the same compound, the TD50 (rat, strain Fischer 344, males, in feed, site: liver, lesion: hepatocellular adenoma + hepatocellular carcinoma + neoplastic nodule, dosed 102 weeks, study length 104 weeks) was 645 mg/kg/day, the TD50 (rat, strain Fischer 344, males, in feed, site: liver, lesion: several types, types named in the paper, dosed 72 weeks, study length 93 weeks) was 1000 mg/kg/day and the TD50 (rat, strain Fischer 344, males, in feed, site: mammary tissue, wider than the gland, lesion: fibroadenoma, dosed 72 weeks, study length 93 weeks) was 149 mg/kg/day. For the same compound, the TD50 (rat, strain Fischer 344, males, in feed, site: multiple organs + spleen + subcutaneous tissue + tunica vaginalis, lesion: angiosarcoma + fibrosarcoma + mesothelioma + osteosarcoma + sarcoma, NOS + fibroma, dosed 102 weeks, study length 104 weeks) was 23.3 mg/kg/day, the TD50 (rat, strain Fischer 344, males, in feed, site: multiple organs + tunica vaginalis, lesion: mesothelioma, dosed 102 weeks, study length 104 weeks) was 97.4 mg/kg/day and the TD50 (rat, strain Fischer 344, males, in feed, site: multiple organs, lesion: angiosarcoma + fibrosarcoma + osteosarcoma + sarcoma, NOS, dosed 102 weeks, study length 104 weeks) was 93.2 mg/kg/day. The TD50 (rat, strain Fischer 344, males, in feed, site: multiple organs, lesion: fibrosarcoma, dosed 102 weeks, study length 104 weeks) was 184 mg/kg/day, the TD50 (rat, strain Fischer 344, males, in feed, site: multiple organs, lesion: sarcoma, NOS, dosed 102 weeks, study length 104 weeks) was 394 mg/kg/day and the TD50 (rat, strain Fischer 344, males, in feed, site: peritoneal cavity, lesion: spindle-cell sarcoma, dosed 72 weeks, study length 93 weeks) was 190 mg/kg/day. For the same compound, the TD50 (rat, strain Fischer 344, males, in feed, site: skin, lesion: fibroma, dosed 72 weeks, study length 93 weeks) was 38.7 mg/kg/day, the TD50 (rat, strain Fischer 344, males, in feed, site: spleen, lesion: fibroma, dosed 72 weeks, study length 93 weeks) was 167 mg/kg/day and the TD50 (rat, strain Fischer 344, males, in feed, site: spleen, lesion: fibroma, dosed 102 weeks, study length 104 weeks) was 134 mg/kg/day. It also gave a TD50 (rat, strain Fischer 344, males, in feed, site: subcutaneous tissue, lesion: fibroma, dosed 102 weeks, study length 104 weeks) of 33.3 mg/kg/day and a TD50 (rat, strain Fischer 344, males, in feed, site: urinary bladder, lesion: several types, types named in the paper, dosed 72 weeks, study length 93 weeks) of 474 mg/kg/day.
In the case of CCOC(=O)C(O)(c1ccc(Cl)cc1)c1ccc(Cl)cc1, the TD50 (mouse, strain B6AKF1, females, oral dosing, site: any site (literature study), lesion: several types, types named in the paper, dosed 82 weeks, study length 82 weeks) is reported as 621 mg/kg/day, the TD50 (mouse, strain B6AKF1, females, oral dosing, site: lung, lesion: adenoma, dosed 82 weeks, study length 82 weeks) is reported as 621 mg/kg/day and the TD50 (mouse, strain B6AKF1, males, oral dosing, site: any site (literature study), lesion: several types, types named in the paper, dosed 82 weeks, study length 82 weeks) is reported as 72.8 mg/kg/day. For the same compound, the TD50 (mouse, strain B6AKF1, males, oral dosing, site: liver, lesion: hepatoma, dosed 82 weeks, study length 82 weeks) was 69.8 mg/kg/day, the TD50 (mouse, strain B6C3F1, females, in feed, site: any site (literature study), lesion: several types, types named in the paper, dosed 78 weeks, study length 90 weeks) was 3930 mg/kg/day and the TD50 (mouse, strain B6C3F1, females, in feed, site: liver, lesion: hepatocellular adenoma + hepatocellular carcinoma + neoplastic nodule, dosed 78 weeks, study length 90 weeks) was 848 mg/kg/day. It also gave a TD50 (mouse, strain B6C3F1, females, in feed, site: liver, lesion: hepatocellular carcinoma, dosed 78 weeks, study length 90 weeks) of 848 mg/kg/day, a TD50 (mouse, strain B6C3F1, females, oral dosing, site: any site (literature study), lesion: several types, types named in the paper, dosed 82 weeks, study length 82 weeks) of 302 mg/kg/day and a TD50 (mouse, strain B6C3F1, females, oral dosing, site: lung, lesion: adenoma, dosed 82 weeks, study length 82 weeks) of 621 mg/kg/day. The TD50 (mouse, strain B6C3F1, males, in feed, site: any site (literature study), lesion: several types, types named in the paper, dosed 78 weeks, study length 90 weeks) was 256 mg/kg/day, the TD50 (mouse, strain B6C3F1, males, in feed, site: liver, lesion: hepatocellular adenoma + hepatocellular carcinoma + neoplastic nodule, dosed 78 weeks, study length 90 weeks) was 235 mg/kg/day and the TD50 (mouse, strain B6C3F1, males, in feed, site: liver, lesion: hepatocellular carcinoma, dosed 78 weeks, study length 90 weeks) was 235 mg/kg/day. For the same compound, the TD50 (mouse, strain B6C3F1, males, oral dosing, site: any site (literature study), lesion: several types, types named in the paper, dosed 82 weeks, study length 82 weeks) was 31.7 mg/kg/day, the TD50 (mouse, strain B6C3F1, males, oral dosing, site: liver, lesion: hepatoma, dosed 82 weeks, study length 82 weeks) was 43.8 mg/kg/day and the carcinogen call (rat, strain Carworth Farms, females, in feed, site: mammary gland, lesion: adenofibroma, dosed 104 weeks, study length 104 weeks) was “negative (inactive)”. The TD50 (rat, strain Osborne-Mendel, females, in feed, site: adrenal gland, lesion: cortical adenoma, dosed 78 weeks, study length 110 weeks) was 490 mg/kg/day (inactive), the TD50 (rat, strain Osborne-Mendel, males, in feed, site: adrenal gland, lesion: cortical adenoma, dosed 78 weeks, study length 110 weeks) was 186 mg/kg/day (inactive) and the TD50 (rat, strain Osborne-Mendel, males, in feed, site: liver, lesion: hepatocellular adenoma + hepatocellular carcinoma + neoplastic nodule, dosed 78 weeks, study length 110 weeks) was 1600 mg/kg/day.
For COc1ccc(C(=O)Nc2c(Cl)cncc2Cl)cc1OC1CCCC1, the TD50 (rat, strain IcoIbm:OFA (Sprague-Dawley derived), females, inhaled, site: nasal cavity, olfactory epithelium, lesion: carcinoma, dosed 102 weeks, study length 102 weeks) was 24.6 mg/kg/day, the TD50 (rat, strain IcoIbm:OFA (Sprague-Dawley derived), females, inhaled, site: nasal cavity, olfactory epithelium, lesion: malignant tumor, dosed 102 weeks, study length 102 weeks) was 1.22 mg/kg/day and the TD50 (rat, strain IcoIbm:OFA (Sprague-Dawley derived), females, inhaled, site: nasal cavity, olfactory epithelium, lesion: neuroblastoma, in situ, dosed 102 weeks, study length 102 weeks) was 12.2 mg/kg/day. It also gave a TD50 (rat, strain IcoIbm:OFA (Sprague-Dawley derived), females, inhaled, site: nasal cavity, olfactory epithelium, lesion: neuroblastoma, dosed 102 weeks, study length 102 weeks) of 1.68 mg/kg/day, a TD50 (rat, strain IcoIbm:OFA (Sprague-Dawley derived), females, inhaled, site: nasal cavity, olfactory epithelium, lesion: several types, types named in the paper, dosed 102 weeks, study length 102 weeks) of 1.18 mg/kg/day and a TD50 (rat, strain IcoIbm:OFA (Sprague-Dawley derived), females, inhaled, site: nasal cavity, olfactory region, Bowman's gland, lesion: adenocarcinoma, dosed 102 weeks, study length 102 weeks) of 24.6 mg/kg/day. It also gave a TD50 (rat, strain IcoIbm:OFA (Sprague-Dawley derived), females, inhaled, site: nasal cavity, olfactory region, Bowman's gland, lesion: adenoma, dosed 102 weeks, study length 102 weeks) of 24.7 mg/kg/day, a TD50 (rat, strain IcoIbm:OFA (Sprague-Dawley derived), males, inhaled, site: nasal cavity, olfactory epithelium, lesion: carcinoma, dosed 104 weeks, study length 104 weeks) of 51.5 mg/kg/day and a TD50 (rat, strain IcoIbm:OFA (Sprague-Dawley derived), males, inhaled, site: nasal cavity, olfactory epithelium, lesion: malignant tumor, dosed 104 weeks, study length 104 weeks) of 2.48 mg/kg/day. It also gave a TD50 (rat, strain IcoIbm:OFA (Sprague-Dawley derived), males, inhaled, site: nasal cavity, olfactory epithelium, lesion: neuroblastoma, in situ, dosed 104 weeks, study length 104 weeks) of 17 mg/kg/day, a TD50 (rat, strain IcoIbm:OFA (Sprague-Dawley derived), males, inhaled, site: nasal cavity, olfactory epithelium, lesion: neuroblastoma, dosed 104 weeks, study length 104 weeks) of 3.75 mg/kg/day and a TD50 (rat, strain IcoIbm:OFA (Sprague-Dawley derived), males, inhaled, site: nasal cavity, olfactory epithelium, lesion: several types, types named in the paper, dosed 104 weeks, study length 104 weeks) of 2.22 mg/kg/day. For the same compound, the TD50 (rat, strain IcoIbm:OFA (Sprague-Dawley derived), males, inhaled, site: nasal cavity, olfactory region, Bowman's gland, lesion: adenocarcinoma, dosed 104 weeks, study length 104 weeks) was 25.6 mg/kg/day and the TD50 (rat, strain IcoIbm:OFA (Sprague-Dawley derived), males, inhaled, site: nasal cavity, olfactory region, Bowman's gland, lesion: adenoma, dosed 104 weeks, study length 104 weeks) was 12.7 mg/kg/day.
